Our source for the T/C values is PubChem BioAssay AID296 (DTP/NCI, 2004).

Values joined by “and” are separate entries in the source; they are usually repeats but may differ in a detail not shown here. Identical values can stand only once. Inconclusive results are not listed.

The test system of this assay is MX-1 breast xenograft, nude mice, tumor weight T/C. As to the kind of experiment: NCI In Vivo Anticancer Drug Screen. Data for tumor model Human Mammary Carcinoma MX-1 Xenograft (intrarenal inoculation) in NU/NU Swiss (nude) mice. The conditions noted are these: endpoint: mean tumor weight change, higher = larger tumour. Here is the method: The antitumor activity of compounds was measured in mice bearing transplantable tumors. Survival or tumor size were measured and the results are expressed as the measurement made in the treated group (T) divided by the measurement made in the vehicle treated control group (C). The tumor model used in this assay is Human Mammary Carcinoma MX-1 Xenograft (intrarenal inoculation) in NU/NU Swiss (nude) mice
In general terms: In xenograft studies the graft and the host belong to different species.

Where [1] appears, read: dose: 75.0 mg/kg/injection, schedule: Q04DX003 (sc), vehicle: Klucel (hydroxypropylcellulose) (HPC).
Setting [2] is: dose: 150.0 mg/kg/injection, schedule: Q04DX003 (sc), vehicle: Klucel (hydroxypropylcellulose) (HPC).
Setting [3] is: dose: 300.0 mg/kg/injection, schedule: Q04DX003 (sc), vehicle: Klucel (hydroxypropylcellulose) (HPC).
The mark [4] stands for this setting: dose: 600.0 mg/kg/injection, schedule: Q04DX003 (sc), vehicle: Klucel (hydroxypropylcellulose) (HPC).
Setting [5] is: dose: 100.0 mg/kg/injection, schedule: Q04DX003 (sc), vehicle: saline.
[6] abbreviates: dose: 400.0 mg/kg/injection, schedule: Q04DX003 (sc), vehicle: saline.
[7] abbreviates: dose: 12.5 mg/kg/injection, schedule: Q04DX003 (sc), vehicle: suspension in saline.
Setting [8] is: dose: 25.0 mg/kg/injection, schedule: Q01DX010 (sc), vehicle: saline.

For `O=c1nc(-c2ccco2)sc(=O)[nH]1`, the T/C reads like this: under setting [1], 122 % of control; under setting [2], 90 % of control; under setting [3], 54 % of control; under setting [4], 58 % of control.

On to `OCCN1CCN(CC/C=C2/c3ccccc3Sc3ccc(C(F)(F)F)cc32)CC1`, for which the T/C is 65 % of control (dose: 30.0 mg/kg/injection, schedule: Q04DX003 (sc), vehicle: saline); 43 % of control (dose: 60.0 mg/kg/injection, schedule: Q04DX003 (sc), vehicle: saline); 29 % of control and 43 % of control (dose: 120.0 mg/kg/injection, schedule: Q04DX003 (sc), vehicle: saline); 17 % of control and 21 % of control (dose: 240.0 mg/kg/injection, schedule: Q04DX003 (sc), vehicle: saline).

For `C=C(C)[C@H]1CN[C@H](C(=O)O)[C@H]1CC(=O)O`, the T/C was 75 % of control (dose: 20.0 mg/kg/injection, schedule: Q04DX003 (sc), vehicle: suspension in saline) and 36 % of control (dose: 40.0 mg/kg/injection, schedule: Q04DX003 (sc), vehicle: suspension in saline).

Regarding `Nc1ncnc2c1ncn2C1OC(CO)C(O)C1O` (stereo not drawn), the T/C is, setting by setting: (dose: 38.0 mg/kg/injection, schedule: Q04DX003 (sc), vehicle: saline) 84 % of control; under setting [5], 120 % of control; (dose: 200.0 mg/kg/injection, schedule: Q04DX003 (sc), vehicle: saline with Tween-80) 100 % of control; (dose: 200.0 mg/kg/injection, schedule: Q04DX003 (sc), vehicle: saline) 72 % of control and 85 % of control; (dose: 400.0 mg/kg/injection, schedule: Q04DX003 (sc), vehicle: saline with Tween-80) 84 % of control; under setting [6], 91 % of control. Moreover, the T/C is, setting by setting: (dose: 800.0 mg/kg/injection, schedule: Q04DX003 (sc), vehicle: saline with Tween-80) 217 % of control; (dose: 1600.0 mg/kg/injection, schedule: Q04DX003 (sc), vehicle: saline with Tween-80) 104 % of control; (dose: 1600.0 mg/kg/injection, schedule: Q04DX003 (sc), vehicle: saline) 52 % of control.

Take `COc1cc(C(=O)c2cocc2C(=O)c2ccc3c(c2)OCO3)cc(OC)c1OC`: the T/C runs as follows: under setting [2], 74 % of control; under setting [3], 52 % of control; under setting [4], 56 % of control; (dose: 1200.0 mg/kg/injection, schedule: Q04DX003 (sc), vehicle: Klucel (hydroxypropylcellulose) (HPC)) 44 % of control.

With `CCOC(=O)Nc1cc2c(c(N)n1)N=C(CN(C)c1ccccc1)CN2`, the T/C (dose: 25.0 mg/kg/injection, schedule: Q01DX010 (sc), vehicle: Klucel (hydroxypropylcellulose) (HPC)) is 82 % of control and the T/C (dose: 50.0 mg/kg/injection, schedule: Q01DX010 (sc), vehicle: Klucel (hydroxypropylcellulose) (HPC)) is 70 % of control.

As for `CCc1ccc(C2=C(O)C(=O)C(c3ccccc3)=C(O)C2=O)cc1`, the T/C is, setting by setting: under setting [2], 100 % of control; under setting [3], 100 % of control; under setting [4], 77 % of control.

With `CC1=CC2c3cccc4[nH]cc(c34)CC2N(C)C1` (stereo not drawn), the T/C under setting [7] was 153 % of control.

On to `O=NN(CCF)C(=O)NC1CCCCC1`, for which the T/C (dose: 3.12 mg/kg/injection, schedule: Q04DX003 (sc), vehicle: Klucel (hydroxypropylcellulose) (HPC)) is 119 % of control; the T/C (dose: 6.25 mg/kg/injection, schedule: Q04DX003 (sc), vehicle: Klucel (hydroxypropylcellulose) (HPC)) is 88 % of control; the T/C (dose: 12.5 mg/kg/injection, schedule: Q04DX003 (sc), vehicle: Klucel (hydroxypropylcellulose) (HPC)) is 91 % of control; the T/C (dose: 25.0 mg/kg/injection, schedule: Q04DX003 (sc), vehicle: Klucel (hydroxypropylcellulose) (HPC)) was 92 % of control.

On to `CCOC(=O)c1cn(C)c2c1C(O)=C(C(=O)OC)CC(=O)N2`, for which the T/C is, setting by setting: (dose: 150.0 mg/kg/injection, schedule: Q04DX003 (sc), vehicle: saline with Tween-80) 95 % of control; (dose: 300.0 mg/kg/injection, schedule: Q04DX003 (sc), vehicle: saline with Tween-80) 80 % of control; (dose: 600.0 mg/kg/injection, schedule: Q04DX003 (sc), vehicle: saline with Tween-80) 85 % of control; (dose: 1200.0 mg/kg/injection, schedule: Q04DX003 (sc), vehicle: saline with Tween-80) 90 % of control.

Take `c1csc(C[N+]23CN4CN(CN(C4)C2)C3)c1`: the T/C runs as follows: under setting [5], 108 % of control; under setting [6], 93 % of control.

As for `CC(=O)OCN(C)C=O`, the T/C (dose: 300.0 mg/kg/injection, schedule: Q01DX010 (sc), vehicle: water) is 100 % of control; the T/C (dose: 600.0 mg/kg/injection, schedule: Q01DX010 (sc), vehicle: water) is 54 % of control; the T/C (dose: 1200.0 mg/kg/injection, schedule: Q01DX010 (sc), vehicle: water) was 18 % of control; the T/C (dose: 2400.0 mg/kg/injection, schedule: Q01DX010 (sc), vehicle: water) is -8 % of control.

In the case of `COc1ccc2nc3cc(Cl)ccc3c(NCCNCCNCCNc3c4ccc(Cl)cc4nc4ccc(OC)cc34)c2c1`, the T/C was 74 % of control (dose: 25.0 mg/kg/injection, schedule: Q01DX010 (sc), vehicle: saline with Tween-80); 78 % of control (dose: 50.0 mg/kg/injection, schedule: Q01DX010 (sc), vehicle: saline with Tween-80); 115 % of control (dose: 100.0 mg/kg/injection, schedule: Q01DX010 (sc), vehicle: saline with Tween-80); 80 % of control (dose: 200.0 mg/kg/injection, schedule: Q01DX010 (sc), vehicle: saline with Tween-80).

In the case of `C[C@]12CCC(=O)C=C1CC[C@@H]1[C@@H]2[C@@H](O)C[C@@]2(C)[C@H]1CC[C@]2(O)C(=O)CO`, the T/C under setting [1] was 117 % of control, the T/C under setting [2] was 45 % of control, the T/C under setting [3] was 33 % of control and the T/C under setting [4] is 33 % of control.

Take `C=C(C)C(=NC(C)(C)C)Nc1ccccc1`: the T/C (dose: 100.0 mg/kg/injection, schedule: Q04DX003 (sc), vehicle: saline with Tween-80) was 101 % of control.

As for `Cc1nc(C(Cl)(Cl)Cl)[nH]c(=O)c1SCCO`, the T/C reads like this: (dose: 150.0 mg/kg/injection, schedule: Q04DX003 (ip), vehicle: distilled water + alcohol) 162 % of control; (dose: 300.0 mg/kg/injection, schedule: Q04DX003 (ip), vehicle: distilled water + alcohol) 195 % of control; (dose: 600.0 mg/kg/injection, schedule: Q04DX003 (ip), vehicle: distilled water + alcohol) 50 % of control.

Turning to `NS(=O)(=O)OCCCCCCCOS(N)(=O)=O`, the T/C (dose: 150.0 mg/kg/injection, schedule: Q04DX003 (ip), vehicle: saline with Tween-80) was -97 % of control.

In the case of `C1OC1C1CO1` (stereo not drawn), the T/C was 4 % of control and 28 % of control (dose: 12.5 mg/kg/injection, schedule: Q01DX010 (sc), vehicle: saline); 63 % of control and 74 % of control under setting [7]; -53 % of control and -47 % of control under setting [8]; 37 % of control and 44 % of control (dose: 25.0 mg/kg/injection, schedule: Q04DX003 (sc), vehicle: suspension in saline); -90 % of control and -85 % of control (dose: 50.0 mg/kg/injection, schedule: Q01DX010 (sc), vehicle: saline); 1 % of control and 4 % of control (dose: 50.0 mg/kg/injection, schedule: Q04DX003 (sc), vehicle: suspension in saline).

On to `OCC1OC(n2cnc3c(=S)nc[nH]c32)C(O)C1O` (stereo not drawn), for which the T/C is 38 % of control and 60 % of control under setting [8]; 84 % of control (dose: 50.0 mg/kg/injection, schedule: Q01DX010 (sc), vehicle: suspension in saline); 12 % of control and 17 % of control (dose: 100.0 mg/kg/injection, schedule: Q01DX010 (sc), vehicle: saline); -81 % of control (dose: 100.0 mg/kg/injection, schedule: Q01DX010 (sc), vehicle: suspension in saline); -22 % of control (dose: 200.0 mg/kg/injection, schedule: Q01DX010 (sc), vehicle: saline); 98 % of control (dose: 300.0 mg/kg/injection, schedule: Q04DX003 (sc), vehicle: saline). The T/C (dose: 600.0 mg/kg/injection, schedule: Q04DX003 (sc), vehicle: saline) is 69 % of control; the T/C (dose: 1200.0 mg/kg/injection, schedule: Q04DX003 (sc), vehicle: saline) is 39 % of control; the T/C (dose: 2400.0 mg/kg/injection, schedule: Q04DX003 (sc), vehicle: saline) was 13 % of control.

As to `C[Si](C)(C)O/C=C1/CCOC1=O`, the T/C reads like this: (dose: 1200.0 mg/kg/injection, schedule: Q04DX003 (sc), vehicle: suspension in saline) 105 % of control; (dose: 2400.0 mg/kg/injection, schedule: Q04DX003 (sc), vehicle: suspension in saline) 157 % of control.
